Laboratory results as given in patent US5373020A, “Substituted 5-(2-((2-aryl-2-hydroxyethyl)amino)propyl)-1,3-benzodioxoles” (American Cyanamid Company, priority 1993, dated 1994).
pEC50: −log10 of the molar value.

Key:
ob/ob mice [1] = experiment: Plasma glucose, compound in chow, obese mice; assay type: in vivo, mouse (C57 B1/6J ob/ob)
Method: (§1) The compounds of this invention were tested for hypoglycemic and anti-obesity activity according to the following procedure.
(§2) Obese mice (C57 B1/6J (ob/ob)), and/or diabetic mice (C57 B1/KsJ (db/db)) were obtained from Jackson Laboratories, Bar Harbor, Maine. Obese rats (fa/fa) were obtained from Charles River Laboratories, Wilmington, Mass. Obese mice were 8 weeks of age and diabetic mice were 9 weeks of age at the start of the test. Obese rats were 12-14 weeks of age at the start.
(§3) The test compounds were dissolved in methanol, mixed with powdered Purina rodent chow on a weight of compound to weight of chow basis and thoroughly dried.
(§4) Groups of 6 control mice or rats received vehicle (methanol) treated chow.
[…] Thus, a 40 g mouse, fed the test compound at a concentration of 0.02 percent of the diet, would receive a dose of 20 mg/kg/day if it ate 4 g of chow per day.
(§5) The mice or rats were weighed before the first treatment and once at the end of each indicated treatment period.
(§6) Blood samples were collected before the first treatment and once at the end of each indicated treatment period by retro-orbital puncture using heparinized capillary tubes.
(§7) Plasma was separated by centrifugation in a Beckman microfuge for 5 minutes. Plasma glucose concentrations were determined with the Beckman glucose analyzer which uses a glucose oxidase method.

db/db mice = experiment: Plasma glucose, compound in chow, diabetic mice; assay type: in vivo, mouse (C57 B1/KsJ db/db)
Method: as §1, §2, §3, §4
(§8) Groups of 6 test mice were fed ad libitum for up to seven weeks and food consumption was measured daily by weighing the food bins before and after the addition of fresh chow. Thus, a 40 g mouse, fed the test compound at a concentration of 0.02 percent of the diet, would receive a dose of 20 mg/kg/day if it ate 4 g of chow per day.
as §5, §6, §7

ob/ob mice [2] = experiment: Change in weight and food consumption, compound in chow, obese mice; assay type: in vivo, mouse (C57 B1/6J ob/ob)
Method: as §1, §2, §3, §4, §8, §5

β3-receptors = molecular target: T1, β3-receptors (Rattus norvegicus, UniProt P26255); experiment: Stimulation of adipocyte lipolysis (β3-effect); assay type: cell-based; details: CL1 vs BRL1 (FIG. 1), CL2 vs BRL2 (FIG. 2)
T1 construct: Rat epididymal fat pads were excised and placed in 0.9% saline; from tissue; host or cells: collagenase-isolated adipocytes from rat epididymal fat pads
T1 sequence (P26255 whole entry): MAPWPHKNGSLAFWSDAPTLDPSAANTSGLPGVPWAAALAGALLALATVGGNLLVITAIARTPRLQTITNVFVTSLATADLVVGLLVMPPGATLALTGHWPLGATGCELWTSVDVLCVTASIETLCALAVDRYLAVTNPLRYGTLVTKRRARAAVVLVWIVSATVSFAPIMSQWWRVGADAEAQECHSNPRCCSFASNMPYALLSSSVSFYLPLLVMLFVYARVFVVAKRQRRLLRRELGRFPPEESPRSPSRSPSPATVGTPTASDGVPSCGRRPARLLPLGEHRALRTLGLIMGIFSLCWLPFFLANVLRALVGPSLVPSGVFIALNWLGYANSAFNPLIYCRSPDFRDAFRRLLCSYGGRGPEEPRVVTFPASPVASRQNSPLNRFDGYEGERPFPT
Method: (§9) β-Adrenergic receptors can be divided into β1, β2 and β3 -subtypes. Activation of β1 -receptors invokes increases in heart rate while activation of β2 -receptors stimulates glycogen breakdown in muscle and thereby prevents glycogen synthesis. Activation of β3 -receptors stimulates lipolysis (the breakdown of adipose tissue triglycerides to glycerol and free fatty acids), and thereby promotes the loss of fat mass.
The β3 -effect of the compounds was determined by their ability to stimulate adipocyte lipolysis. Rat epididymal fat pads were excised and placed in 0.9% saline. Four grams of tissue were transferred to a flask with 20 ml of aerated Krebs-Henseleit bicarbonate (KHB) buffer containing 3% fatty acid-free bovine serum albumin to which 75 mg of crude bacterial collagenase (Worthington) had been added. The tissue was incubated for about 45 minutes at 37° C. with gentle shaking. The cells were then washed three times with two volumes of KHB buffer, filtered through two layers of gauze, and brought to a final volume of 80 ml with KHB buffer. One ml aliquots of the cell suspension were added to plastic test tubes containing the appropriate additions of vehicle or compound. The cells were gassed for 1 minute with 95% O2 -5% CO2, capped, and incubated at 37° C. with continuous shaking for a total of 30 minutes. The reaction was stopped by adding 0.1 ml of 30% perchloric acid and 0.1 ml of chloroform. After centrifugation, 0.5 ml of supernatant was transferred to another test tube and neutralized with 0.04 ml of 3M K2 CO3 -0.5M triethanolamine. The amount-of glycerol generated from the hydrolysis of endogenous triglycerides was determined in a coupled-enzyme spectrophotometric assay. […] The test tubes were incubated for 40 minutes at 37° C. with constant shaking. […] This value was corrected for the amount of NADH generated in the absence of glycerol by incubating another aliquot of the neutralized extract with the same assay mixture but without glycerokinase.

β1-receptors = molecular target: T2, β1-receptors (Cavia porcellus, UniProt H0W3H1); experiment: Effect on heart rate of isolated right atria (β1-effect); set-up: species or system guinea pig
T2 construct: from tissue; host or cells: guinea pig right atria
T2 sequence (H0W3H1 1-470): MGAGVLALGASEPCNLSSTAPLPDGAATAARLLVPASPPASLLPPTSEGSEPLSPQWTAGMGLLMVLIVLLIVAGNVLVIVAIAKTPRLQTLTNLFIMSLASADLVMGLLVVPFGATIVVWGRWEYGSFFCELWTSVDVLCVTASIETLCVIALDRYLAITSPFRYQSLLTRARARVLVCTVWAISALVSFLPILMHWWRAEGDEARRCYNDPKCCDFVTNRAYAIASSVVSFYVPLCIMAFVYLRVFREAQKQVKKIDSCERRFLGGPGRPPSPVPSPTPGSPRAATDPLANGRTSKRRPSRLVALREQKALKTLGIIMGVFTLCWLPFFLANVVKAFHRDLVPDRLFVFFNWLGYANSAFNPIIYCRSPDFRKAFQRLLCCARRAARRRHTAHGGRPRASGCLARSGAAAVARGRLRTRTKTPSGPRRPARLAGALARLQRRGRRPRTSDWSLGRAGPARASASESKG
Method: as §9
Selectivity of a compound was determined using the following procedures. The effect on heart rate (β1 -effect) was determined using isolated right atria. […] The right atria were dissected and clamped at one end to a tissue holder and electrode assembly (MRA Corp.) and tied at the other end to a force-displacement transducer (Gould-Statham, Burco). The tissues were maintained at 32° C. in a 50 ml capacity glass chamber (MRA Corp.) preloaded with 0.5 g tension. Heart rate was monitored by a Grass polygragh. […] The increase in heart rate was calculated and considered to be the maximum response for that tissue. The tissues were then washed and allowed to equilibrate for 90 minutes. Cumulative concentration-response curves were then determined for each compound or vehicle. All responses were measured 5 minutes post-exposure.

β2-receptors = molecular target: T3, β2-receptors (Mus musculus, UniProt P18762); experiment: Inhibition of insulin-mediated incorporation of 14C-glucose into glycogen in isolated soleus muscle (β2-effect)
T3 construct: Soleus muscle from mice were dissected; from tissue; host or cells: mouse soleus muscle
T3 sequence (P18762 whole entry): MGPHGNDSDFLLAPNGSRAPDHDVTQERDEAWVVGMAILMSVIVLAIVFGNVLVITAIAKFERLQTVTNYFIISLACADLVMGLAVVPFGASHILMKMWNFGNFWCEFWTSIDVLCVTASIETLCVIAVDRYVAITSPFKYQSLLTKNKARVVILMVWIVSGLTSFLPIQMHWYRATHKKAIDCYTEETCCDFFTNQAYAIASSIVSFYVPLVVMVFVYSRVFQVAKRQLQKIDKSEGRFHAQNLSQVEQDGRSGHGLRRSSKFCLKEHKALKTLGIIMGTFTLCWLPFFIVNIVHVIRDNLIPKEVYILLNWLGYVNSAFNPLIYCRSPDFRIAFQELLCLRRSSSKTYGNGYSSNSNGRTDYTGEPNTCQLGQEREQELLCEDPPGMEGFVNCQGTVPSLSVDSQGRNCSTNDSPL
Method: as §9
The β2 -effect of the compounds was determined by their ability to inhibit the insulin-mediated incorporation of ^14 C-glucose into glycogen in isolated muscle. Soleus muscle from mice were dissected, tied at each end, and placed in a clamp to maintain tension. The clamped muscle was added to a vial that contained 2 ml of KHB with 1.5% bovine serum albumin, 0.3 mU/ml insulin, 5 mM (U^-14 C) glucose, and the appropriate additions of compound or vehicle. The vial was gassed with 95% O2 -5% CO2, capped, and the tissue incubated for one hour in a rotating water bath at 37° C. The muscle was then removed, rinsed in ice-cold saline, blotted and weighed. It was then added to 1 ml of 30% KOH containing 5 mg/ml of oyster glycogen, boiled for 10 minutes, and 0.4 ml of 2% Na2 SO4 and 3.2 ml of 100% ethanol added. After standing overnight at 4° C., the glycogen was pelleted by centrifugation, washed once with 66% ethanol, and repelleted. The pellet was dissolved in 1 ml of water and the amount of radioactivity present determined by liquid scintillation.

[3] = dose 0.002 % wt of chow, week 0 (before treatment)
[4] = dose 0.002 % wt of chow, week 1
[5] = dose 0.002 % wt of chow, week 4
[6] = dose 0.005 % wt of chow, week 0 (before treatment)
[7] = dose 0.005 % wt of chow, week 1
[8] = dose 0.005 % wt of chow, week 4
[9] = CL1 vs BRL1 (FIG. 1), CL2 vs BRL2 (FIG. 2)

C[C@H](Cc1ccc2c(c1)OC(C(=O)[O-])(C(=O)[O-])O2)NC[C@H](O)c1cccc(Cl)c1.[Na+].[Na+] (stereo in doubt) [CL2, (R*,R*)-(±)-5(2-((2-(3-chlorophenyl)-2-hydroxyethyl)amino)propyl)-1,3-benzodioxole-2,2-dicarboxylic acid, disodium salt]
Plasma Glucose Levels (ob/ob mice [1]; dose 0.0005 % wt of chow, week 0 (before treatment)): 218 mg/100 ml | Plasma Glucose Levels (ob/ob mice [1]; dose 0.0005 % wt of chow, week 1): 193 mg/100 ml | Plasma Glucose Levels (ob/ob mice [1]; dose 0.0005 % wt of chow, week 4): 240 mg/100 ml | Plasma Glucose Levels (ob/ob mice [1]; [3]): 220 mg/100 ml | Plasma Glucose Levels (ob/ob mice [1]; [4]): 162 mg/100 ml | Plasma Glucose Levels (ob/ob mice [1]; [5]): 197 mg/100 ml | Plasma Glucose Levels (ob/ob mice [1]; [6]): 220 mg/100 ml | Plasma Glucose Levels (ob/ob mice [1]; [7]): 145 mg/100 ml | Plasma Glucose Levels (ob/ob mice [1]; [8]): 165 mg/100 ml | Plasma Glucose Levels (db/db mice; [3]): 453 mg/100 ml | Plasma Glucose Levels (db/db mice; [4]): 236 mg/100 ml | Plasma Glucose Levels (db/db mice; dose 0.002 % wt of chow, week 5): 190 mg/100 ml | Plasma Glucose Levels (db/db mice; dose 0.002 % wt of chow, week 7): 25 mg/100 ml | Plasma Glucose Levels (db/db mice; [6]): 452 mg/100 ml | Plasma Glucose Levels (db/db mice; [7]): 155 mg/100 ml | Plasma Glucose Levels (db/db mice; dose 0.005 % wt of chow, week 5): 145 mg/100 ml | Plasma Glucose Levels (db/db mice; dose 0.005 % wt of chow, week 7): 16 mg/100 ml | Average Daily Food Consumption (ob/ob mice [2]; dose 0.002 % wt of chow): 5.2 g/animal | Change in weight (ob/ob mice [2]; [4]): 1.6 grams | Change in weight (ob/ob mice [2]; dose 0.002 % wt of chow, week 2): 4.1 grams | Change in weight (ob/ob mice [2]; dose 0.002 % wt of chow, week 3): 4.7 grams | Change in weight (ob/ob mice [2]; [5]): 7.3 grams | Average Daily Food Consumption (ob/ob mice [2]; dose 0.005 % wt of chow): 5.9 g/animal | Change in weight (ob/ob mice [2]; [7]): 0.2 grams | Change in weight (ob/ob mice [2]; dose 0.005 % wt of chow, week 2): 1.6 grams | Change in weight (ob/ob mice [2]; dose 0.005 % wt of chow, week 3): 2.4 grams | Change in weight (ob/ob mice [2]; [8]): 4.7 grams | β3 potency in comparison (β3-receptors): slightly greater β3 potency than does BRL2 | pEC50 (β1-receptors): < 3.00 | β1 activity (β1-receptors; [9]): no measurable β1 activity | pEC50 (β2-receptors): < 4.00 | β2 activity (β2-receptors; [9]): only minimal β2 activity at 1×10^-4 M
